The nature of data set [1]: Serum (blood) level of isoflavone derivatives after oral administration to ovariectomized rats. Also on record: species or system Sprague-Dawley rats. The settings on record: in vivo. The protocol:
(§1) To obtain postmenopausal osteoporosis model, eighty-day-old Sprague-Dawley rats, on day 10 after ovariectomy, was grown for 28 days feeding with calcium deficient diet (Ca: 0.004%, P: 0.3%), with one group consisting of 5 to 6 rats. During the time the rats were growing, an isoflavone derivative, or a β-cyclodextrin clathrate thereof (see Table 3), was administered orally in the form of a solution or a suspension in 1% aqueous hydroxypropylcellulose. On the day before the final administration, urine was collected for 24 hours. Blood was collected from postcava at 4 hours after the final administration, and a femur was removed. The collected blood was separated to obtain serum according to a standard method. In order to determine the amounts of isoflavone derivatives in the obtained samples of urine and serum, the samples were subjected to the reactions for 2 hours at 37° C. through adding thereto 50 Units/ml of sulfatase (EC3.1.6.1; SIGMA CHEMICAL Co. LTD.) in 1 ml of acetate buffer (0.1M, pH 4.5). Then 1 ml of acetate buffer (0.1M, pH 4.5) containing β-glucuronidase (200 Units/ml, EC 3.2.1.31, WAKO JYUNYAKU KOGYO KABUSIKI KAISYA) was added to the mixture and incubated for 2 hours at 37° C. After treating it with Sep-Pak (Waters), the incubated solution was analyzed using HPLC as described in the above clathrate formation test. Concentration of each isoflavone derivatives in the sample was determined based on the values for daidzein, genistein, or glycitein as a standard. Bone density of femur was calculated based on wet weight and volume measured by pycnometer.

Data set [2] concerns postmenopausal osteoporosis model (femur). The data set can be described thus: Bone density of femur in postmenopausal osteoporosis model (ovariectomized rats, calcium deficient diet). Type of data set: in vivo, Sprague-Dawley rats. The settings on record: ovariectomized rat femur, oral, 28 days; Means ± S.D.; a: vs nonclathrated, b: vs control (1%). The protocol: as §1
A short description of data set [3]: 24 h urinary excretion of isoflavone derivatives after oral administration to ovariectomized rats. Also on record: species or system Sprague-Dawley rats. The conditions noted are these: in vivo, rat, 24 h urine on day before final administration, Means ± S.D., a: significantly different from nonclathrated (1%), read-out: Urinary Excretion Rate. The protocol:
as §1, with “Then 1 ml of acetate buffer (0.1M, pH 4.5) containing β-glucuronidase (200 Units/ml, EC 3.2.1.31, WAKO JYUNYAKU KOGYO KABUSIKI KAISYA) was added to the mixture and incubated for 2 hours at 37° C.” left out

The conditions of data set [4]: in words, dietary intake; cited from earlier work.

The compound `CC(=O)OC[C@H]1O[C@@H](Oc2ccc3c(=O)c(-c4ccc(O)cc4)coc3c2)[C@H](O)[C@@H](O)[C@@H]1O` [6"-O-acetyldaidzin] came in with a concentration at 4 h in data set [1] (rat) of 740 ± 50 ng/mL. The “Bone Density” value in data set [2] came to 1.492 ± 0.014 g/mL.

Take `CC(=O)OC[C@H]1O[C@@H](Oc2cc(O)c3c(=O)c(-c4ccc(O)cc4)coc3c2)[C@H](O)[C@@H](O)[C@@H]1O` [6"-O-acetylgenistin]: the concentration at 4 h in data set [1] (rat) was determined as 780 ± 70 ng/mL. Further, the “Bone Density” value in data set [2] amounted to 1.494 ± 0.028 g/mL.

In turn, `COc1cc2c(=O)c(-c3ccc(O)cc3)coc2cc1O[C@@H]1O[C@H](COC(C)=O)[C@@H](O)[C@H](O)[C@H]1O` [6"-O-acetylglycitin] came in with a concentration at 4 h in data set [1] (rat) of 720 ± 60 ng/mL. Also, in data set [2], the “Bone Density” value was 1.489 ± 0.012 g/mL.

Compound `O=C(O)CC(=O)OC[C@H]1O[C@@H](Oc2ccc3c(=O)c(-c4ccc(O)cc4)coc3c2)[C@H](O)[C@@H](O)[C@@H]1O` [6"-O-malonyldaidzin] gave a concentration at 4 h in data set [1] (rat) of 850 ± 50 ng/mL. The “Bone Density” value in data set [2] was 1.488 ± 0.012 g/mL.

In turn, `O=C(O)CC(=O)OC[C@H]1O[C@@H](Oc2cc(O)c3c(=O)c(-c4ccc(O)cc4)coc3c2)[C@H](O)[C@@H](O)[C@@H]1O` [6"-O-malonylgenistin] showed a concentration at 4 h in data set [1] (rat) of 840 ± 40 ng/mL. Further, the “Bone Density” value in data set [2] amounted to 1.494 ± 0.013 g/mL.

Compound `COc1cc2c(=O)c(-c3ccc(O)cc3)coc2cc1O[C@@H]1O[C@H](COC(=O)CC(=O)O)[C@@H](O)[C@H](O)[C@H]1O` [6"-O-malonylglycitin] yielded a concentration at 4 h in data set [1] (rat) of 780 ± 50 ng/mL. In data set [2], the “Bone Density” value came out at 1.489 ± 0.012 g/mL.

Compound `O=C(O)CCC(=O)OC[C@H]1O[C@@H](Oc2ccc3c(=O)c(-c4ccc(O)cc4)coc3c2)[C@H](O)[C@@H](O)[C@@H]1O` [6"-O-succinyldaidzin] had a concentration at 4 h in data set [1] (rat) of 860 ± 30 ng/mL. For the same compound, in data set [2], the “Bone Density” value was 1.490 ± 0.030 g/mL.

Regarding `O=C(O)CCC(=O)OC[C@H]1O[C@@H](Oc2cc(O)c3c(=O)c(-c4ccc(O)cc4)coc3c2)[C@H](O)[C@@H](O)[C@@H]1O` [6"-O-succinylgenistin], the concentration at 4 h in data set [1] (rat) is 820 ± 50 ng/mL. Besides, the “Bone Density” value in data set [2] came out at 1.486 ± 0.028 g/mL.

In the case of `COc1cc2c(=O)c(-c3ccc(O)cc3)coc2cc1O[C@@H]1O[C@H](COC(=O)CCC(=O)O)[C@@H](O)[C@H](O)[C@H]1O` [6"-O-succinylglycitin], the concentration at 4 h in data set [1] (rat) was 790 ± 30 ng/mL. The “Bone Density” value in data set [2] turned out to be 1.477 ± 0.032 g/mL.

Compound `O=c1c(-c2ccc(O)cc2)coc2cc(O)ccc12` [daidzein] yielded a concentration at 4 h in data set [1] (rat) of 650 ± 40 ng/mL. In addition, the “Bone Density” value in data set [2] amounted to 1.489 ± 0.013 g/mL.

Consider `O=c1c(-c2ccc(O)cc2)coc2cc(O[C@@H]3O[C@H](CO)[C@@H](O)[C@H](O)[C@H]3O)ccc12` [daidzin], for which the concentration at 4 h in data set [1] (heading: Blood Level, rat serum, oral, 4 hours after the final administration, Means ± S.D., a: significantly different from nonclathrated (1%)) came out at 840 ± 30 ng/mL. In addition, the dose excreted at 24 h in data set [3] is 9.3 ± 0.7%. Also, in data set [2], the “Bone Density” value was 1.496 ± 0.015 g/mL. For the same compound, the “urinary excretion in Japanese female relative to female in Boston or Helsinki” value in data set [4] is on record as “ten times greater”.

In the case of `O=c1c(-c2ccc(O)cc2)coc2cc(O)cc(O)c12` [genistein], in data set [1] (rat), the concentration at 4 h came out at 680 ± 30 ng/mL. Moreover, the “Bone Density” value in data set [2] stood at 1.492 ± 0.012 g/mL.

In turn, `O=c1c(-c2ccc(O)cc2)coc2cc(O[C@@H]3O[C@H](CO)[C@@H](O)[C@H](O)[C@H]3O)cc(O)c12` [genistin] had a concentration at 4 h in data set [1] (rat) of 780 ± 40 ng/mL. In data set [2], the “Bone Density” value was determined as 1.502 ± 0.007 g/mL.

In data set [1] (rat), `COc1cc2c(=O)c(-c3ccc(O)cc3)coc2cc1O` [glycitein] had a concentration at 4 h of 630 ± 50 ng/mL. The “Bone Density” value in data set [2] is 1.493 ± 0.013 g/mL.

As to `COc1cc2c(=O)c(-c3ccc(O)cc3)coc2cc1O[C@@H]1O[C@H](CO)[C@@H](O)[C@H](O)[C@H]1O` [glycitin], in data set [1] (rat), the concentration at 4 h was 750 ± 60 ng/mL. In addition, the “Bone Density” value in data set [2] amounted to 1.494 ± 0.015 g/mL.

The values are drawn from patent US5847108A, “Clathrate of isoflavone derivatives and edible composition comprising the same” (Fujicco Co., Ltd., priority 1996, dated 1998).
